From ChEMBL document CHEMBL1201862, “PubChem BioAssay data set” (2004)
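Test compounds were applied to cells in 96-well plates for 48 hours at 5 doses. Abbreviation: GI50, concentration required for 50% inhibition of growth.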 The source made the active and inactive calls. Cut-off read from the data, not from the text of the source: active = GI50 up to about 1.1 µM and inactive = higher.

How the values were obtained:
Experiment in all cases: NCI tumour cell line growth inhibition, 48 h
K562 = tested on: K562
SK-OV-3 = tested on: SK-OV-3
SK-MEL-5 = tested on: SK-MEL-5
UACC-257 = tested on: UACC-257
SW-620 = tested on: SW-620
Malme-3M = tested on: Malme-3M
T47D = tested on: T47D
HT-29 = tested on: HT-29
IGROV-1 = tested on: IGROV-1
SF-268 = tested on: SF-268
BT-549 = tested on: BT-549
NCI-H226 = tested on: NCI-H226
NCI-H23 = tested on: NCI-H23
MDA-N = tested on: MDA-N
UO-31 = tested on: UO-31
MCF7 = tested on: MCF7
COLO 205 = tested on: COLO 205
PC-3 = tested on: PC-3
NCI-H522 = tested on: NCI-H522
SN12C = tested on: SN12C
RPMI-8226 = tested on: RPMI-8226
UACC-62 = tested on: UACC-62
SNB-75 = tested on: SNB-75
OVCAR-8 = tested on: OVCAR-8
DU-145 = tested on: DU-145
KM12 = tested on: KM12
MDA-MB-231 = tested on: MDA-MB-231
CCRF-CEM = tested on: CCRF-CEM
M14 = tested on: M14
NCI/ADR-RES = tested on: NCI/ADR-RES
MDA-MB-435 = tested on: MDA-MB-435
LOX IMVI = tested on: LOX IMVI
OVCAR-5 = tested on: OVCAR-5
EKVX = tested on: EKVX
MOLT-4 = tested on: MOLT-4
OVCAR-3 = tested on: OVCAR-3
SK-MEL-2 = tested on: SK-MEL-2
ACHN = tested on: ACHN
CAKI-1 = tested on: CAKI-1
HOP-62 = tested on: HOP-62
Hs-578T = tested on: Hs-578T
A498 = tested on: A498
SF-295 = tested on: SF-295
HCT-15 = tested on: HCT-15
SK-MEL-28 = tested on: SK-MEL-28
786-0 = tested on: 786-0
RXF 393 = tested on: RXF 393
HCT-116 = tested on: HCT-116
TK-10 = tested on: TK-10
A549 = tested on: A549
U-251 = tested on: U-251
HL-60 = tested on: HL-60
HOP-92 = tested on: HOP-92
SF-539 = tested on: SF-539
SNB-19 = tested on: SNB-19
HCC 2998 = tested on: HCC 2998
NCI-H460 = tested on: NCI-H460
OVCAR-4 = tested on: OVCAR-4

With `C[N+](C)(CCNC(=O)c1cccc2cc3ccccc3nc12)Cc1ccc([N+](=O)[O-])s1` as the compound, how does the GI50 (K562) read?
Its GI50 is > 25 µM (inactive).

What about the GI50 (SK-OV-3) of the same compound?
The GI50 was > 25 µM (inactive).

And the GI50 (SK-MEL-5)?
The GI50 was > 25 µM (inactive).

What about the GI50 (UACC-257) of the same compound?
The GI50 was > 25 µM (inactive).

And the GI50 (SW-620)?
The GI50 was > 25 µM (inactive).

What about the GI50 (Malme-3M) of the same compound?
The GI50 was > 25 µM (inactive).

What about the GI50 (T47D) of the same compound?
The GI50 was > 25 µM (inactive).

What about the GI50 (HT-29) of the same compound?
Its GI50 is > 25 µM (inactive).

What about the GI50 (IGROV-1) of the same compound?
The GI50 was > 25 µM (inactive).

And the GI50 (SF-268)?
The GI50 was > 25 µM (inactive).

And the GI50 (BT-549)?
The GI50 was > 25 µM (inactive).

What about the GI50 (NCI-H226) of the same compound?
The GI50 was > 25 µM (inactive).

And the GI50 (NCI-H23)?
Its GI50 is > 25 µM (inactive).

What about the GI50 (MDA-N) of the same compound?
The GI50 was > 25 µM (inactive).

What about the GI50 (UO-31) of the same compound?
Its GI50 is > 25 µM (inactive).

What about the GI50 (MCF7) of the same compound?
The GI50 was > 25 µM (inactive).

What about the GI50 (COLO 205) of the same compound?
The GI50 was > 25 µM (inactive).

And the GI50 (PC-3)?
Its GI50 is > 25 µM (inactive).

What about the GI50 (NCI-H522) of the same compound?
The GI50 was > 25 µM (inactive).

And the GI50 (SN12C)?
The GI50 was > 25 µM (inactive).

And the GI50 (RPMI-8226)?
Its GI50 is > 25 µM (inactive).

What about the GI50 (UACC-62) of the same compound?
The GI50 was > 25 µM (inactive).

And the GI50 (SNB-75)?
Its GI50 is > 25 µM (inactive).

And the GI50 (OVCAR-8)?
Its GI50 is > 25 µM (inactive).

What about the GI50 (DU-145) of the same compound?
The GI50 was > 25 µM (inactive).

What about the GI50 (KM12) of the same compound?
Its GI50 is > 25 µM (inactive).

What about the GI50 (MDA-MB-231) of the same compound?
The GI50 was > 25 µM (inactive).

And the GI50 (CCRF-CEM)?
Its GI50 is > 25 µM (inactive).

And the GI50 (M14)?
The GI50 was > 25 µM (inactive).

What about the GI50 (NCI/ADR-RES) of the same compound?
The GI50 was > 25 µM (inactive).

What about the GI50 (MDA-MB-435) of the same compound?
The GI50 was > 25 µM (inactive).

And the GI50 (LOX IMVI)?
The GI50 was > 25 µM (inactive).

What about the GI50 (OVCAR-5) of the same compound?
Its GI50 is > 25 µM (inactive).

What about the GI50 (EKVX) of the same compound?
Its GI50 is > 25 µM (inactive).

What about the GI50 (MOLT-4) of the same compound?
The GI50 was > 25 µM (inactive).

What about the GI50 (OVCAR-3) of the same compound?
Its GI50 is > 25 µM (inactive).

And the GI50 (SK-MEL-2)?
The GI50 was > 25 µM (inactive).

What about the GI50 (ACHN) of the same compound?
Its GI50 is > 25 µM (inactive).

What about the GI50 (CAKI-1) of the same compound?
Its GI50 is 14.9 µM (inactive).

And the GI50 (HOP-62)?
Its GI50 is > 25 µM (inactive).

And the GI50 (Hs-578T)?
Its GI50 is > 25 µM (inactive).

And the GI50 (A498)?
The GI50 was > 25 µM (inactive).

What about the GI50 (SF-295) of the same compound?
Its GI50 is > 25 µM (inactive).

What about the GI50 (HCT-15) of the same compound?
Its GI50 is > 25 µM.

And the GI50 (SK-MEL-28)?
The GI50 was > 25 µM (inactive).

And the GI50 (786-0)?
Its GI50 is > 25 µM (inactive).

What about the GI50 (RXF 393) of the same compound?
The GI50 was > 25 µM (inactive).

And the GI50 (HCT-116)?
Its GI50 is > 25 µM (inactive).

And the GI50 (TK-10)?
The GI50 was > 25 µM (inactive).

What about the GI50 (A549) of the same compound?
The GI50 was > 25 µM (inactive).

And the GI50 (U-251)?
The GI50 was > 25 µM (inactive).

What about the GI50 (HL-60) of the same compound?
Its GI50 is 10.9 µM (inactive).

And the GI50 (HOP-92)?
Its GI50 is > 25 µM (inactive).

For `C=CCNC(=S)N/C=C(/C(C)=O)C(=O)Nc1ccccc1C`, which GI50 (K562) is on record?
The GI50 was > 100 µM (inactive).

What about the GI50 (SK-OV-3) of the same compound?
Its GI50 is > 100 µM (inactive).

What about the GI50 (SK-MEL-5) of the same compound?
The GI50 was > 100 µM (inactive).

And the GI50 (UACC-257)?
The GI50 was > 100 µM (inactive).

What about the GI50 (SW-620) of the same compound?
The GI50 was > 100 µM (inactive).

And the GI50 (SF-539)?
The GI50 was > 100 µM (inactive).

And the GI50 (T47D)?
Its GI50 is > 100 µM (inactive).

And the GI50 (HT-29)?
Its GI50 is > 100 µM (inactive).

What about the GI50 (IGROV-1) of the same compound?
Its GI50 is > 100 µM (inactive).

What about the GI50 (SF-268) of the same compound?
Its GI50 is > 100 µM (inactive).

And the GI50 (SNB-19)?
The GI50 was > 100 µM (inactive).

What about the GI50 (BT-549) of the same compound?
Its GI50 is > 100 µM (inactive).

What about the GI50 (NCI-H226) of the same compound?
Its GI50 is > 100 µM (inactive).

And the GI50 (NCI-H23)?
Its GI50 is > 100 µM (inactive).

And the GI50 (MDA-N)?
Its GI50 is > 100 µM (inactive).

What about the GI50 (UO-31) of the same compound?
Its GI50 is > 100 µM (inactive).

And the GI50 (MCF7)?
The GI50 was > 100 µM (inactive).

And the GI50 (COLO 205)?
Its GI50 is > 100 µM (inactive).

What about the GI50 (PC-3) of the same compound?
The GI50 was > 100 µM (inactive).

And the GI50 (NCI-H522)?
Its GI50 is > 100 µM (inactive).

What about the GI50 (SN12C) of the same compound?
The GI50 was > 100 µM (inactive).

What about the GI50 (RPMI-8226) of the same compound?
Its GI50 is 4.76 µM (inactive).

And the GI50 (UACC-62)?
The GI50 was > 100 µM (inactive).

And the GI50 (OVCAR-8)?
The GI50 was > 100 µM (inactive).

What about the GI50 (DU-145) of the same compound?
The GI50 was > 100 µM (inactive).

And the GI50 (KM12)?
The GI50 was > 100 µM (inactive).

What about the GI50 (MDA-MB-231) of the same compound?
Its GI50 is > 100 µM (inactive).

What about the GI50 (M14) of the same compound?
The GI50 was > 100 µM (inactive).

What about the GI50 (NCI/ADR-RES) of the same compound?
The GI50 was > 100 µM (inactive).

What about the GI50 (HCC 2998) of the same compound?
The GI50 was > 100 µM (inactive).

And the GI50 (MDA-MB-435)?
Its GI50 is > 100 µM (inactive).

What about the GI50 (LOX IMVI) of the same compound?
Its GI50 is > 100 µM (inactive).

What about the GI50 (OVCAR-5) of the same compound?
The GI50 was > 100 µM (inactive).

What about the GI50 (EKVX) of the same compound?
Its GI50 is > 100 µM (inactive).

What about the GI50 (MOLT-4) of the same compound?
Its GI50 is > 100 µM (inactive).

And the GI50 (OVCAR-3)?
The GI50 was > 100 µM (inactive).

What about the GI50 (SK-MEL-2) of the same compound?
The GI50 was > 100 µM (inactive).

And the GI50 (ACHN)?
The GI50 was > 100 µM (inactive).

What about the GI50 (NCI-H460) of the same compound?
Its GI50 is > 100 µM (inactive).

And the GI50 (CAKI-1)?
Its GI50 is > 100 µM (inactive).

What about the GI50 (HOP-62) of the same compound?
The GI50 was > 100 µM (inactive).

What about the GI50 (Hs-578T) of the same compound?
The GI50 was > 100 µM (inactive).

And the GI50 (SF-295)?
Its GI50 is > 100 µM (inactive).

And the GI50 (HCT-15)?
The GI50 was > 100 µM.

What about the GI50 (786-0) of the same compound?
The GI50 was > 100 µM (inactive).

And the GI50 (RXF 393)?
Its GI50 is > 100 µM (inactive).

What about the GI50 (HCT-116) of the same compound?
Its GI50 is > 100 µM (inactive).

What about the GI50 (OVCAR-4) of the same compound?
The GI50 was > 100 µM (inactive).

And the GI50 (TK-10)?
The GI50 was > 100 µM (inactive).

And the GI50 (A549)?
Its GI50 is > 100 µM (inactive).

What about the GI50 (U-251) of the same compound?
Its GI50 is > 100 µM (inactive).

And the GI50 (HL-60)?
The GI50 was > 100 µM (inactive).
